Calls of active or inactive are those of the source.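 The calls were made as follows: active = mean IC50 for reducing PEG3 promoter reporter signal at or below a set limit, with IC50 above the limit in both counter screens; inactive = the rest, including counter screen hits.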
Key:
PEG-3 [1] = test: Peg3 promoter luciferase inhibitors, potency, dose response, cell-based, HeLa, CREF/GAPDH counter-screen panel (AID 624167); settings: HeLa PEG-Prom luciferase reporter, overnight, CREF/GAPDH counter-screens
PEG-3 [2] = target: PEG-3 (UniProt Q6IN02); test: as above; settings: HeLa PEG-Prom luciferase reporter, overnight, CREF/GAPDH counter-screens, mean of runs
Sequence of PEG-3 (UniProt Q6IN02) (Q6IN02 whole entry, looked up): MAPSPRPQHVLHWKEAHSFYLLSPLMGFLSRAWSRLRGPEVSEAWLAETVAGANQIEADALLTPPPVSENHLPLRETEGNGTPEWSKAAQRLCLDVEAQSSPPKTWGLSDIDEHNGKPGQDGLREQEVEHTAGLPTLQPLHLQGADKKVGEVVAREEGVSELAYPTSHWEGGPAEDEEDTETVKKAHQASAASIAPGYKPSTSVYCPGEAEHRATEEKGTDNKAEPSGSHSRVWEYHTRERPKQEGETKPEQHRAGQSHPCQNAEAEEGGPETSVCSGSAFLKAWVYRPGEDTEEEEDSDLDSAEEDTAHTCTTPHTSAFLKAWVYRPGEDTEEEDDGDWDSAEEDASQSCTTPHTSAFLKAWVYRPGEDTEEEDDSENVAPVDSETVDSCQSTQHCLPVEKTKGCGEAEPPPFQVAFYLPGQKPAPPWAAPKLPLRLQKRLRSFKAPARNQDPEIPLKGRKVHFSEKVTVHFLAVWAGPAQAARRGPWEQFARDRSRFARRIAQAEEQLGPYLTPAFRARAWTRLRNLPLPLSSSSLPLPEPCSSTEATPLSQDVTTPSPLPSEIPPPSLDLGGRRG

[3] = run 1, dose range 1, individual replicate IC50 per panel
[4] = run 2, dose range 1, individual replicate IC50 per panel

Compound	IC50 (PEG-3 [1]; [3]) [µM]	IC50 (PEG-3 [1]; [4]) [µM]	IC50 (PEG-3 [2])
CCOc1cc(/C=N/N=C(N)N)ccc1OCc1ccc(Cl)cc1	16.9	9.05	13 µM
COc1cc(/C=C/C(=O)N2CCC=CC2=O)cc(OC)c1OC	15.9	12.1	14 µM
COc1ccc(C2c3ccc4ccccc4c3Oc3ncn(CCCO)c(=N)c32)cc1 (stereo unspecified)	22.8	17	19.9 µM
COc1ccc(-c2cc(C(=O)N(C)Cc3ccc(OC)c(OC)c3OC)c3ccccc3n2)cc1OC	13.4	30.9	inactive
O=C1NC(=O)N(Cc2ccco2)C(=O)/C1=C/C=C/c1ccco1	14.8	12.6	13.7 µM
Cc1ccc(C2(CCNCc3ccc(N(C)C)cc3)CCOC(C(C)C)C2)cc1 (stereo unspecified)	25.9	21.3	inactive
C=C(C)Cn1c(SCC(=O)N/N=C/c2c(O)ccc3ccccc23)nc2ccccc2c1=O	> 100	> 100	> 100 µM (inactive)
Nc1c(C(=O)Nc2cccc(C(=O)O)c2)sc2nc3c(cc12)CCCC3	4.36	18	11.2 µM
CCOC(=O)c1sc2nc(CSc3ccccc3)nc(N3CCCN(C)CC3)c2c1C	19.4	19.4	19.4 µM
COc1cc2c(cc1OC)CN(c1nc(-c3cccnc3)nc3ccccc13)CC2	31.3	63.8	inactive
CCc1ccc(NC(=O)CSc2nc3ccccc3c(=O)n2CCCN2CCC(C)CC2)cc1	19.8	14.8	17.3 µM
O=C(C(=O)N(Cc1ccccc1)Cc1ccccc1)c1c(-c2ccccc2)[nH]c2ccccc12	> 100	7.5	inactive
Cc1cccc2c1-c1sc(C(=O)NCCCN3CCCC(C)C3)cc1CO2 (stereo unspecified)	17.5	13.7	15.6 µM
CN(C)CC(O)COc1ccc(C(C)(C)c2ccc(OCC(O)CN(C)C)cc2)cc1 (stereo unspecified)	26.8	> 100	inactive
COc1ccc(CC(N)c2csc(NC(=O)Nc3ccccc3C(C)(C)C)n2)cc1 (stereo unspecified)	19.1	31	inactive
N/C(=N\OC(=O)c1ccccc1)C(Cc1ccccc1)C(=O)NOC(=O)c1ccccc1 (stereo unspecified)	15	11	13 µM
Cc1cc(/C=c2/sc3nc4ccccc4n3c2=O)c(C)n1-c1ccccn1	21.7	30.9	inactive
CC1(C)CC(NC(=O)c2cccc(S(=O)(=O)N(Cc3ccccc3)c3ccccc3)c2)CC(C)(C)N1	18.6	18.9	18.8 µM
CCOC(=O)C1=C(COCCN)NC(C)=C(C(=O)OC)C1c1ccccc1Cl (stereo unspecified)	19	12.1	15.6 µM
N#C/C(=C\c1cccc([N+](=O)[O-])c1)C(=O)NCc1ccc(Cl)cc1	14.7	13.4	14 µM
COc1cc(CNC(C)(C)CO)cc(Br)c1OCc1ccc(Cl)cc1	20.6	12.6	16.6 µM
CCCCCCCCCC[N+](C)(C)CC/C=C1/c2ccccc2Sc2ccc(Cl)cc21	14.9	8.43	11.7 µM
COc1cccc(NC(=O)CN(C)C(=O)c2cccnc2Nc2cccc(C(F)(F)F)c2)c1	22.5	24.2	inactive

Compound	IC50 (PEG-3 [1]; [3]) [µM]	IC50 (PEG-3 [1]; [4]) [µM]	IC50 (PEG-3 [2])
Cc1ccc(C)c(OCC(O)CN2CCC(CN3C(=O)c4cccc5cccc(c45)C3=O)CC2)c1 (stereo unspecified)	18.4	15.9	17.2 µM
CC1CCCCN1C(=O)c1cccc(NC2=C(Cl)C(=O)N(Cc3ccccc3)C2=O)c1 (stereo unspecified)	29.9	51.8	inactive
CCC(C)NCCOCCOc1ccc(Cl)c2ccccc12 (stereo unspecified)	18.6	17.5	18.1 µM
CCCc1nc2oc3c(NCCCN(C)C)ncnc3c2c2c1CCCC2	19.5	9.84	14.7 µM
CCCCCCC=C1CCC(CN2CCCC2)C1=O (stereo unspecified)	35.6	29.6	inactive
Cc1c(C(=O)N2CCC3(CC2)OCCO3)sc2ncnc(N3CCN(c4ccccn4)CC3)c12	24	29	inactive
Cc1cccc(/C=C2/Sc3ccc(C(=O)NCCN4CCCC4)cc3NC2=O)c1	20.8	9.95	15.4 µM
Cc1cc(Cl)n2ncc(-c3ccccc3)c2n1	40.1	> 100	inactive
c1ccc(CCNc2nc(-c3ccncc3)nc3ccccc23)cc1	17.7	8.58	13.1 µM
C[C@@H](NCCCn1cnc2c(OCc3ccccc3)ncnc21)c1cccc2ccccc12	17.7	15.2	16.5 µM
COc1cc(/C=C/c2ccc3cccc(O)c3n2)c(Br)cc1O	63.2	42.7	inactive
Cc1ccc(S(=O)(=O)CCSC(=N)N)cc1	36.6	42.7	inactive
Cc1nc(N2CCN(c3ccccn3)CC2)c2c(C)c(C(=O)Nc3ccccc3F)sc2n1	9.97	> 100	inactive
O=[N+]([O-])c1cc(F)c(N2CCCCCC2)cc1N1CCNCC1	18.9	12.5	15.7 µM
c1ccc(C[C@H]2CNCCN2CCCCC2CCCCC2)cc1	20.1	14.8	17.5 µM
CCN1CCN(C(c2ccc(C(F)(F)F)cc2)c2ccc3cccnc3c2O)CC1 (stereo unspecified)	21.7	16.5	19.1 µM
CCN(CC)CCn1c2ccccc2c2cnc(N)c(C#N)c21	11.3	12.9	12.1 µM
CCCCCCCCCCCCCCCC(O)C[N+](C)(C)CCO (stereo unspecified)	17.7	8.35	13 µM
CC1=CC(C)[C@H](/C=N/n2c(=O)[nH]c3c([nH]c4ccc(Br)cc43)c2=O)C(C)C1 (stereo partly specified)	> 100	5.42	inactive
CN(C)CCNc1ncnc2c1ncn2[C@H]1CN(Cc2ccc(-c3ccccc3)cc2)C[C@@H](CO)O1	30.7	17.4	inactive
Cc1ccc2nc(N(CCCN(C)C)C(=O)c3ccc4c(c3)CCCC4)sc2c1	22	17.6	19.8 µM
COc1cccc(C(=O)c2sc(NC(C)C)nc2N)c1	16.5	13.6	15 µM
NC1=NC[C@H](Cc2ccccc2)N1CCc1cc(C(F)(F)F)cc(C(F)(F)F)c1	46.5	17.1	inactive

Compound	IC50 (PEG-3 [1]; [3]) [µM]	IC50 (PEG-3 [1]; [4]) [µM]	IC50 (PEG-3 [2])
Cc1ccc(NS(=O)(=O)c2cc3c4c(cccc4c2)C(=O)NC3=O)cc1C	5.99	> 100	inactive
CCN(CC)C(=O)Cn1cc(/C=C2\C(=O)NC(=O)N(c3ccccc3F)C2=O)c2ccccc21	14.9	13.1	14 µM
COc1cc(/C=C2\SC(=S)N(CCC(=O)N3CCCCC3)C2=O)cc(OC)c1OC	35.1	19.1	inactive
O=C(O)CN1C(=O)/C(=C\c2ccccc2OCc2ccc(Cl)cc2Cl)SC1=S	16.6	17.2	16.9 µM
CC(=O)c1c(NCCc2ccccc2)nc(=S)n(-c2ccccc2)c1C	17.2	10.3	13.8 µM
CCOc1cc(/C=N/Nc2nc(-c3cccc(S(=O)(=O)N4CCCC4)c3)cs2)ccc1O	22.3	60.1	inactive
Cc1cc(C)nc(NC(=O)c2c(F)c(F)c(F)c(C(=O)Nc3cc(C)cc(C)n3)c2F)c1	20.1	19.5	19.8 µM
Cc1ccsc1C(=O)OCC(=O)c1cc(C)n(CC2CCCO2)c1C (stereo unspecified)	11.8	18	14.9 µM
NCCCNc1nc(N)c([N+](=O)[O-])c(NC2CCCCC2)n1	10.7	13.9	12.3 µM
CN(C)S(=O)(=O)c1cccc(NC(=O)CSc2cccc3cccnc23)c1	23.7	19.6	inactive
O=Cc1cn(Cc2ccc(Br)cc2)c2ccccc12	43.8	> 100	inactive
COc1cccc(C(=O)O/N=C(\N)c2ccccn2)c1	15.2	7.08	11.1 µM
CN(CC(=O)Nc1ccc(Cl)c(C(F)(F)F)c1)C(=O)c1cc(-c2ccncc2)nc2ccccc12	16.2	15.9	16.1 µM
CC(=O)N1CCN(c2cc(-c3ccccc3)nc3cc(-c4cccc(Cl)c4)nn23)CC1	23.8	18.3	inactive
CCN(c1ccccc1)S(=O)(=O)c1ccc(C(=O)N(CCCN(C)C)c2nc3cc4c(cc3s2)OCO4)cc1	23.6	19.7	inactive
CN(C)CCNc1ccc2ncn3c4ccc(O)cc4c(=O)c1c23	54	< 0.2	inactive
COc1cccc(-c2cnc3c(NC=O)cc(-c4cccc(C(=O)N(C)C)c4)cn23)c1	19.9	17.7	18.8 µM
COc1cc(C=NO)nc(-c2ccccn2)c1	0.84	< 0.2	0.52 µM
CCCCCCCCNCCS(=O)(=O)NCc1ccc(OC)cc1	17.7	18.3	18 µM
COc1ccc(NS(=O)(=O)c2ccc3ccccc3c2)c2ncccc12	13.5	21.6	17.6 µM
O=C(Nc1ccc(S(=O)(=O)NC2=NCCCCC2)cc1)c1ccc([N+](=O)[O-])s1	19.2	11.7	15.4 µM
